Reference: article PMC8634879, “Design, Synthesis, and Biological Evaluation of Pyrano[2,3-c]-pyrazole–Based RalA Inhibitors Against Hepatocellular Carcinoma” (Frontiers in Chemistry, 2021)

Key:
RalA = molecular target: T1, RalA (Homo sapiens, UniProt P11233); test: ELISA-based RalA activity assay (RalBP1-coated plates, lysates of compound-treated cells); type: biochemical
T1 construct: expressed in transfected cells; host or cells: HepG2 (from b6; the methods paragraph names no cell line)
T1 sequence (P11233 1-203 limits assumed): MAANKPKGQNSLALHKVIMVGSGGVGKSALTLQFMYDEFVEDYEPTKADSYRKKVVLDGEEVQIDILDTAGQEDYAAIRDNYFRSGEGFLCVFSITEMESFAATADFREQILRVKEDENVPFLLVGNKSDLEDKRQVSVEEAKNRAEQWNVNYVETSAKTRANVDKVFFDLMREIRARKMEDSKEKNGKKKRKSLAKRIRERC
Procedure, shortened: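 Lysates of compound- or vehicle-treated cells, cleared by cold centrifugation, incubated overnight at 4°C on RalBP1-coated plates. Bound Ral detected with mouse anti-FLAG then HRP anti-mouse antibody; reaction stopped with 2 mol/L sulfuric acid and read at OD450.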

HepG2 cells = test: Autophagy assays in HepG2 cells (TEM, Western blotting, GFP-LC3 puncta); type: cell-based
Description: Several reports have characterized RalA/B potential regulatory roles in autophagy ([Zhang et al., 2019]; [Pang et al., 2020]; [Zhang et al., 2020]). Considering the dual effect of HCC autophagy, we assessed changes in HepG2 cell autophagy levels after the addition of 0.5 or 2.0 μM of 4p, before incubation. Based on HepG2 cells’ TEM images with or without 4p (Figure 5B), autophagy vacuoles per cell decreased in the 4p-treated group (p < 0.01). After 4p treatments, LC3-II and ATG5 protein levels declined and SQSTM1 increased. […] In GFP-LC3–transfected HepG2 cells, cytoplasm LC3 fluorescent puncta numbers also declined after 4p treatments. […] The in vivo antitumor capacities of 4p were determined on a HepG2 subcutaneous xenograft model. The 4p intraperitoneal injections were set to 15 mg/kg and 60 mg/kg, according to in vitro results. […] The potential 4p molecular mechanisms were further validated using immunofluorescence and IHC analyses of tissue sections stained by antibodies against TUNEL, Ki-67, RalA, LC3-II, and SQSTM1. […] Therefore, the in vivo results were consistent with in vitro experiments. […]
The autophagy assay is relied on HepG2 cells transfected by GFP-LC3. In brief, the HepG2 cells after transfecting are processed by saline or compound 4p for 6 h, after that the cells are going to fix by paraformaldehyde and the phenomenon of autophagosome punctures can be observed through the accumulated of GFP-LC3 under laser confocal microscopy.
2. Western blotting analysis
For western blotting, the extracts of total protein from each sample were treated in accordance with the method we described previously. In short, the total proteins were loaded into the SDS-PAGE gel and separated through the different of their molecular weight in electrophoresis, after that the separated proteins were shifted into a PVDF membrane (Millipore, Burlington, MA, USA) and incubated through corresponding membrane react pathways. The resulted membranes reacted with major antibodies and HRP (horseradish peroxidase)-conjugated secondary antibodies. The expression profiles of target proteins can be identified through an enhanced chemiluminescence (ECL) substrate. […]

COc1ccc(S(=O)(=O)NC2=C(C#N)C(c3ccc(C(F)(F)F)cc3)c3c(C)nn(-c4ccccc4)c3O2)cc1 (stereo not drawn) [4p, N-(5-cyano-3-methyl-1-phenyl-4-(4-(trifluoromethyl)phenyl)-1,4-dihydropyrano[2,3-c]-pyrazol-6-yl)-4-methoxybenzenesulfonamide]
remaining activity at 1 µM (RalA; 1 μM compound, % control = activity remained): 13%
IC50 (RalA; enzymatic inhibition, average of at least three independent replicates ± SD, read-out: Kinase activities (IC50, μM) RalA): 0.22 ± 0.04 µM
cytoplasm LC3 fluorescent puncta numbers (HepG2 cells; GFP-LC3–transfected HepG2 cells, 2.0 μM): declined
LC3-II and ATG5 protein levels (Western blotting) (HepG2 cells; HepG2, 0.5 or 2.0 μM): declined
SQSTM1 protein level (Western blotting) (HepG2 cells; HepG2, 0.5 or 2.0 μM): increased
autophagy vacuoles per cell (TEM) (HepG2 cells; HepG2, 4p-treated group, p < 0.01): decreased
